Converted amounts (≈) assume the structure as drawn. “Also recorded” adds a separate entry of the source. Structures can show the parent of a compound that is named as a salt. Blank lines part the entries; values can stand above or below the compound they belong to.
Legend:
[1] = Saturated aqueous solubility determination (HPLC); type: physicochemical; details: for Ratio (relative to CM): solubility relative to creatine monohydrate; for solubility at 1.5 h: thermodynamic from solid, deionized water, 25° C.
Experimental: After 1.5 hour, the saturated solutions were vortexed and 2-ml aliquots removed and centrifuged in microcentrifuge tubes at 11,000 rpm for 5 min. Concentrations were analyzed by HPLC by diluting 500 μL of supernatant with mobile phase (500 μL). The mean±standard deviation of the saturation solubility for each antiviral therapeutic compound is calculated from the corresponding standard curves.

[2] = system: hCMEC/d3 microfluidic culture model; assay: Permeability of microfluidic BBB model treated with cancer patient plasma; type: cell-based, human; details: for permeability coefficient: 1 mM CtB
[3] = system: human brain endothelial cells (HCMEC/d3); assay: Creatinine uptake in HCMEC/d3 cells; type: cell-based; details: HCMEC/d3, 1 mM, 3-hour period
Experimental: In an effort to determine the impact/effectiveness of a formulation made in accordance with the present disclosure on increasing creatinine delivery, different cell types were exposed to several of the formulations in Example 1. More specifically, cellular uptake studies were performed for formulations including CEE and CtB from Example 1. […] In other words, it remains unknown where there is a transporter involved in the accumulation of creatinine. Without being bound by any particular theory, if a transporter is involved for accumulation of creatinine, it may be the organic cation transporter 2 (OCT2) found in kidney tubule epithelial cells. The various cell lines discussed above were first exposed to 1 mM of creatinine (CRN), CEE, and CtB at 37° C. for a 3-hour incubation period at a pH 7.4. After incubation, the assay buffer was collected. The cells were then washed rapidly three times with ice-cold phosphate-buffered saline solution. […] More specifically, the creatinine content in cell lysates was determined using QuantichromTM Creatinine Assay Kit (DICT 500) from Bioassay Systems (Hayward, CA). The assay quantitatively measures creatinine without any pretreatment through an optimized Jaffe method. […] The intensity of the red, measured at 510 nm, is directly proportional to the concentration of creatinine in the sample. […]

[4] = system: human colon epithelial (Caco-2); assay: Creatinine uptake in Caco-2 cells; type: cell-based; details: Caco-2, 1 mM, 3-hour period; hydrochloride
hBMEC/d3 cells = assay: Bradykinin-induced prostaglandin E2 release (PGE2 ELISA); type: cell-based; details: for inhibition of prostaglandin (PGE2) release: 1.0 mM, 1-hour preincubation, 10 μM bradykinin, at 6 and 24 hours, compared with 10 μM HOE 140
Experimental: In an effort to determine the impact/effectiveness of creatinine pronutrient formulations made in accordance with the present disclosure on decreasing prostaglandin release over a 24-hour period due to bradykinin exposure, hBMEC/d3 cells were pre-treated with a creatinine pronutrient of the present disclosure and then exposed to 10 μM bradykinin. More specifically, hBMEC/d3 cells were grown on T25 flasks to confluency. Media was removed and exchanged with endothelial cell media containing 0.1% BSA and (1) 1.0 mM CEE, (2) 1.0 mM creatine t-butyl ester hydrochloride (CtB), or (3) 10 μM HOE 140 (a known BR2 receptor antagonist). After a 1-hour incubation, bradykinin (10 μM) was added and samples of media removed and assayed for prostaglandin E2 (PGE2) at 3, 6 and 24 hours. The amount of PGE 2 secreted into the media by the cells was determined using a PGE2 ELISA and normalized to cell lysate protein content.

[5] = human, oral 3 grams creatinine given with 3 grams creatine nitrate; cited from earlier work
[6] = cited from earlier work
[7] = Human single oral dose pharmacokinetics of creatinine (Ostojic et al. 2019); type: in vivo; details: plasma, oral 3 grams creatinine given with 3 grams creatine nitrate, computed from literature data, read-out: AUC(0-120m) (converted)
Text: The creatinine data in Table 4 was generated from the data provided in Ostojic et al., Food Sci Nutr. 2019. […] In order to assess the relative bioavailability of the formulations (and to correct for the slightly different doses administered with various forms due to the different molecular weights), the AUC plasma uptake values observed for creatinine and the creatinine pronutrient formulation were entered into the following equation to produce a ratio: […]

[8] = Rat PK study, plasma levels after creatinine pronutrient dosing; type: in vivo, sprague-dawley male rats
Experimental: A rat PK study was performed to determine resulting plasma creatinine levels following creatinine pronutrient dosing. […] Levels of creatine, creatinine pronutrient, and creatinine in the plasma were measured over time. In this study, the specific creatinine pronutrient used was creatine ethyl ester hydrochloride. Blood samples were collected over a 4-hour period via femoral artery catheter. Muscle and brain tissue were collected at the end of the study. Liquid chromatography-mass spectrometry (LCMS) was used for analysis of samples. The area under the plasma concentration curve following oral dosing was compared to that obtained following IV administration. The creatinine pronutrient formulation data in Table 4 was generated from the creatinine data gathered in Example 4 using allometric dosing to determine the human dose equivalent for the labeled creatinine pronutrient (for a 70 kg human). In order to assess the relative bioavailability of the formulations (and to correct for the slightly different doses administered with various forms due to the different molecular weights), the AUC plasma uptake values observed for creatinine and the creatinine pronutrient formulation were entered into the following equation to produce a ratio: […]

[9] = system: hCMEC/d3 (human brain endothelial cells); assay: Bradykinin-induced permeability in microfluidic BBB culture model; type: cell-based; details: 1 mM CEE pretreatment 1-hour
Experimental: In an effort to determine the impact/effectiveness of creatinine pronutrient formulations made in accordance with the present disclosure, studies examined bradykinin-induced effects on endothelial permeability using a microfluidic blood-brain barrier (BBB) culture model consisting of hCMEC/d3 (human brain endothelial cells) grown on Mimeta microfluidic plates. More specifically, permeability studies were performed using the microfluidic BBB culture model under control conditions and following exposure to a low dose (10 nM) or high dose (10 μM) of bradykinin in either the presence or absence of creatine ethyl ester hydrochloride (CEE) as the creatinine pronutrient.
hCMEC/d3 cells in Mimeta microfluidic plate were pretreated for 1 hour with media or media+1 mM CEE. Thereafter, the cells were treated with a low concentration (10 nM) or high concentration (10 μM) of bradykinin. The permeability of a fluorescent dye (IRdye 800) was assessed after 30 minutes.

COX1 = COX1 (Homo sapiens, UniProt P23219); assay: COX activity, COX1; type: biochemical
Chain of COX1 (P23219 24-599): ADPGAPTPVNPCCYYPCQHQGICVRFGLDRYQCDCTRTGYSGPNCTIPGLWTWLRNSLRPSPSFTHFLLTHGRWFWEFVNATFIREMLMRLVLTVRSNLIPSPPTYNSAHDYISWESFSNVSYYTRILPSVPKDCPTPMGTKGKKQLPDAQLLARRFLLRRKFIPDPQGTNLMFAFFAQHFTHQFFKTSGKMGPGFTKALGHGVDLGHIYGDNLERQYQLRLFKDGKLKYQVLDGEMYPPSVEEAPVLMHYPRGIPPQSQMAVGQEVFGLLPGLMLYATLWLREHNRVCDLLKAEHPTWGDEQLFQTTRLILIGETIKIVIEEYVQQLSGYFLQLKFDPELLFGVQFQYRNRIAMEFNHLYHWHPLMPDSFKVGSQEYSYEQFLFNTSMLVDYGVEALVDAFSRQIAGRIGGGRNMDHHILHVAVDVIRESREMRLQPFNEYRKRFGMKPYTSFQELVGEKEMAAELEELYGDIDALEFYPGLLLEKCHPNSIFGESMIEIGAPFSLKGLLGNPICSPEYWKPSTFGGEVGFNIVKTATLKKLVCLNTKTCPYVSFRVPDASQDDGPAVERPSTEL
Text: (§1) The effects of the creatinine pronutrient on PGE2 release was not due to the inhibition of prostaglandin synthesis through cyclooxygenase (COX) as production of prostaglandins by either COX1 or COX2 was unaffected by CEE.

COX2 = target: T1, COX2 (Homo sapiens, UniProt P35354); assay: COX activity, COX2; type: biochemical
T1 sequence (P35354 18-604): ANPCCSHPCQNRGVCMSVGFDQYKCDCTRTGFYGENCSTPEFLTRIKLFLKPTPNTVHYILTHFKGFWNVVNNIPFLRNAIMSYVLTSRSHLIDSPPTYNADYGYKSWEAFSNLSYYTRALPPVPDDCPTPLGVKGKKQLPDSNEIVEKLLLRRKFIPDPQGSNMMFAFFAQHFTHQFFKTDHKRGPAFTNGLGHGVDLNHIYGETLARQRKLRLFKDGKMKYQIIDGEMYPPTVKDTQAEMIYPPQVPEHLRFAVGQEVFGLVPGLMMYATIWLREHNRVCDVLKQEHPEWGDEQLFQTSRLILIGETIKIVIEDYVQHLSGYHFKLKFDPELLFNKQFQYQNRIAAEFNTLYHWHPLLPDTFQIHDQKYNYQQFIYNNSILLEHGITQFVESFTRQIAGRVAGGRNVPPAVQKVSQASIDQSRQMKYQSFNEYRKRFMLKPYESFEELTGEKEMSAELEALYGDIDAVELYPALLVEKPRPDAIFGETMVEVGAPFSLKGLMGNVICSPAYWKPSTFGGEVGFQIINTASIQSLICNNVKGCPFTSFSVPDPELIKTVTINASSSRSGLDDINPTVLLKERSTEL
Text: as §1

[10] = rat, after 10 or 70 mg/kg oral or 10 mg/kg IV creatinine pronutrient

SMILES: CCOC(=O)CN(C)C(=N)N [CEE, creatine ethyl ester hydrochloride]
- creatinine delivered to the plasma as compared to creatinine ([8]; high and low doses): twice as much
- creatine in plasma samples [8, 10]: no detectable amount
- creatinine pronutrient in plasma samples [8, 10]: Small but measurable amounts
- creatinine in plasma samples ([8]; rat, after creatinine pronutrient dosing, especially at the high dose): Substantial levels
- permeability coefficient of IRdye 800 ([9]; then 10 nM bradykinin (1.05×10^−8 without CEE)): 0.00343 ×10⁻⁶ cm/s
- permeability coefficient of IRdye 800 ([9]; then 10 μM bradykinin (2.90×10^−8 without CEE)): 0.0142 ×10⁻⁶ cm/s
- production of prostaglandins by COX1 (COX1): unaffected
- Ratio (relative to CM) [1]: >9
- solubility at 1.5 h [1]: 205 mg/mL
- production of prostaglandins by COX2 (COX2): unaffected
- PGE release in response to bradykinin (hBMEC/d3 cells): prevents PGE release
- inhibition of prostaglandin (PGE2) release (hBMEC/d3 cells): as effective at inhibiting prostaglandin release as the known BR2 receptor antagonist HOE 140

SMILES: CCOC(=O)CNC(=O)CN(C)C(=N)N [Creatine Glycinamide Ethyl Ester HCl, creatine glycinamide ethyl ester]
- Ratio (relative to CM) [1]: >29
- solubility at 1.5 h [1]: > 600 mg/mL

SMILES: CN(CC(=O)OC1CCCCC1)C(=N)N [Creatine Cyclohexyl Ester Tosylate, creatine cyclohexyl ester]
- Ratio (relative to CM) [1]: <1.0
- solubility at 1.5 h [1]: 15 to 20 mg/mL

SMILES: CC(C)CCOC(=O)CN(C)C(=N)N [Creatine Isopentyl Ester HCl, creatine isopentyl ester hydrochloride]
- Ratio (relative to CM) [1]: >29
- solubility at 1.5 h [1]: > 600 mg/mL

Continued, in another order:

- Ratio (relative to CM) [1]: >8
- solubility at 1.5 h [1]: 178 ± 7.2 mg/mL (≈ 1120 mM)
SMILES: CCOC(=O)CCNC(=N)N [Ethyl (α-guanido-methyl) ethonoate, ethyl (α-guanido-methyl) ethanoate]

- creatinine accumulation compared with 1 mM creatinine [3]: greater
- Ratio (relative to CM) [1]: ≥18
- solubility at 1.5 h [1]: 389 mg/mL
- creatinine accumulation compared with 1 mM creatinine [4]: greater; also recorded: almost double
SMILES: CN(CC(=O)OC(C)(C)C)C(=N)N.Cl [CtB, creatine tert-butyl ester hydrochloride]
- permeability coefficient ([2]; breast cancer patient CF80 6 month plasma, 24-hour treatment (2.78×10^−8 without CtB)): 0.00963 ×10⁻⁶ cm/s
- permeability coefficient ([2]; breast cancer patient CF80 baseline plasma, 24-hour treatment (1.06×10^−8 without CtB)): 0.00297 ×10⁻⁶ cm/s
- permeability increases produced by plasma samples from cancer patients ([2]; addition of 1 mM): attenuated
- inhibition of prostaglandin (PGE2) release (hBMEC/d3 cells): as effective at inhibiting prostaglandin release as the known BR2 receptor antagonist HOE 140

- AUC [7]: 4600 ng·h/mL
SMILES: CN1CC(=O)NC1=N [Creatinine, creatinine]
- Cmax (plasma creatinine) [5]: 15300 ng/mL
- Cmin (plasma creatinine) [5]: 11300 ng/mL
- Tmax [5]: 1 h
- solubility [6]: 23 mg/mL (≈ 203 mM)

Source: patent US20250017886A1, “FORMULATIONS AND METHODS FOR INCREASING CREATININE LEVELS IN PLASMA, EXTRACELLULAR FLUID AND/OR INTRACELLULAR COMPARTMENTS” (Vireo Systems, Inc., priority 2023, published 2025)
